Assay results: ChEMBL document CHEMBL1201861, “Genomics of Drug Sensitity in Cancer screening data, Wellcome Trust Sanger Institute”

What was measured:
Assay in all cases: cells
NH-12 = format: functional, cell-based, Homo sapiens; details: Homo sapiens, NH-12;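 also: growth inhibition of NH-12 cells, read out with a cell viability assay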
Description: SANGER: Inhibition of human NH-12 cell growth in a cell viability assay.

SW 962 = format: functional, cell-based, Homo sapiens; details: Homo sapiens, SW 962;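 also: growth inhibition of human SW962 cells, read out by a cell viability assay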
Description: SANGER: Inhibition of human SW962 cell growth in a cell viability assay.

D283 Med = format: functional, cell-based, Homo sapiens; details: Homo sapiens, D283 Med
Description: SANGER: Inhibition of human D-283MED cell growth in a cell viability assay.

NB17 = format: functional, cell-based; details: Homo sapiens;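 also: growth inhibition of NB17 cells, read out with a cell viability assay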
Description: SANGER: Inhibition of human NB17 cell growth in a cell viability assay.

A498 = format: functional, cell-based, Homo sapiens; details: Homo sapiens, A498;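 also: growth inhibition of human A498 cells, read out with a cell viability assay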
Description: SANGER: Inhibition of human A498 cell growth in a cell viability assay.

SF-268 = format: functional, cell-based, Homo sapiens; details: Homo sapiens, SF-268;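 also: growth inhibition of SF-268 cells determined with a cell viability assay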
EW-1 = format: functional, cell-based, Homo sapiens; details: Homo sapiens, EW-1;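 also: growth inhibition of the human EW-1 cell line, read out by a cell viability assay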
Description: SANGER: Inhibition of human EW-1 cell growth in a cell viability assay.

NB10 = format: functional, cell-based, Homo sapiens; details: Homo sapiens, NB10;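 also: growth inhibition of NB10 cells, read out by a cell viability assay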
Description: SANGER: Inhibition of human NB10 cell growth in a cell viability assay.

HAL-01 = format: functional, cell-based; details: Homo sapiens;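 also: growth inhibition of human HAL-01 cells, read out with a cell viability assay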
Description: SANGER: Inhibition of human HAL-01 cell growth in a cell viability assay.

ES3 = format: functional, cell-based, Homo sapiens; details: Homo sapiens, ES3;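 also: growth inhibition of ES3 cells, read out with a cell viability assay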
SF-126 = format: functional, cell-based, Homo sapiens; details: Homo sapiens, SF-126;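 also: growth inhibition of human SF126 cells, read out with a cell viability assay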
Description: SANGER: Inhibition of human SF126 cell growth in a cell viability assay.

A4-Fuk = format: functional, cell-based; details: Homo sapiens;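 also: growth inhibition of A4-Fuk cells, read out by a cell viability assay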
Description: SANGER: Inhibition of human A4-Fuk cell growth in a cell viability assay.

QIMR-WIL = format: functional, cell-based; details: Homo sapiens;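 also: growth inhibition of QIMR-WIL cells, read out with a cell viability assay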
Description: SANGER: Inhibition of human QIMR-WIL cell growth in a cell viability assay.

NB5 = format: functional, cell-based, Homo sapiens; details: Homo sapiens, NB5;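 also: growth inhibition of NB5 cells, read out as cell viability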
Description: SANGER: Inhibition of human NB5 cell growth in a cell viability assay.

A388 = format: functional, cell-based, Homo sapiens; details: Homo sapiens, A388;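 also: growth inhibition of human A388 cells, read out with a cell viability assay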
Description: SANGER: Inhibition of human A388 cell growth in a cell viability assay.

TE-6 = format: functional, cell-based, Homo sapiens; details: Homo sapiens, TE-6;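 also: growth inhibition of TE-6 cells, read out with a cell viability assay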
Description: SANGER: Inhibition of human TE-6 cell growth in a cell viability assay.

HH = format: functional, cell-based; details: Homo sapiens
Description: SANGER: Inhibition of human HH cell growth in a cell viability assay.

SW 954 = format: functional, cell-based, Homo sapiens; details: Homo sapiens, SW 954;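 also: growth inhibition of SW954 human cancer cells, read out as cell viability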
Description: SANGER: Inhibition of human SW954 cell growth in a cell viability assay.

MFH-ino = format: functional, cell-based; details: Homo sapiens;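 also: growth inhibition of human MFH-ino cells, read out by a cell viability assay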
Description: SANGER: Inhibition of human MFH-ino cell growth in a cell viability assay.

TGBC1TKB = format: functional, cell-based, Homo sapiens; details: Homo sapiens, TGBC1TKB;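 also: growth inhibition of TGBC1TKB cells, read out by a cell viability assay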
Description: SANGER: Inhibition of human TGBC1TKB cell growth in a cell viability assay.

NCI-H82 = format: functional, cell-based; details: Homo sapiens;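 also: growth inhibition of NCI-H82 cells, measured with a cell viability readout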
Description: SANGER: Inhibition of human NCI-H82 cell growth in a cell viability assay.

LC-2-ad = format: functional, cell-based, Homo sapiens; details: Homo sapiens, LC-2-ad;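 also: growth inhibition of human LC-2-ad cells, read out with a cell viability assay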
Description: SANGER: Inhibition of human LC-2-ad cell growth in a cell viability assay.

C2BBe1 = format: functional, cell-based, Homo sapiens; details: Homo sapiens, C2BBe1;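 also: growth inhibition of C2BBe1 cells, read out through a viability assay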
Description: SANGER: Inhibition of human C2BBe1 cell growth in a cell viability assay.

ES4 = format: functional, cell-based, Homo sapiens; details: Homo sapiens, ES4;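 also: growth inhibition of human ES4 cells, read out by a cell viability assay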
Description: SANGER: Inhibition of human ES4 cell growth in a cell viability assay.

K562 = format: functional, cell-based; details: Homo sapiens
Description: SANGER: Inhibition of human K-562 cell growth in a cell viability assay.

Structure (SMILES) | IC50 (NH-12) [µM] | IC50 (SW 962) [µM] | IC50 (D283 Med) [µM] | IC50 (NB17) [µM] | IC50 (SF-268) [µM] | IC50 (EW-1) [µM] | IC50 (NB10) [µM] | IC50 (HAL-01) [µM] | IC50 (ES3) [µM] | IC50 (SF-126) [µM] | IC50 (A4-Fuk) [µM] | IC50 (QIMR-WIL) [µM] | IC50 (NB5) [µM] | IC50 (A388) [µM] | IC50 (TE-6) [µM] | IC50 (HH) [µM] | IC50 (SW 954) [µM] | IC50 (MFH-ino) [µM] | IC50 (TGBC1TKB) [µM] | IC50 (NCI-H82) [µM] | further results
CC1=C2C[C@H]3[C@@H](CC=C4C[C@@H](O)CC[C@@]43C)[C@@H]2CC[C@]12O[C@@H]1C[C@H](C)CN[C@H]1[C@H]2C [CYCLOPAMINE] | > 16 | > 16 | > 16 | > 16 | > 16 | > 16 | > 16 | > 16 | > 16 | > 16 | > 16 | > 16 | > 16 | > 16 | > 16 | > 16 | > 16 | > 16 | > 16 | > 16 | IC50 (A498): > 16 µM; IC50 (LC-2-ad): > 16 µM; IC50 (C2BBe1): > 16 µM; IC50 (ES4): > 16 µM; IC50 (K562): > 16 µM
CN1CCN(CCOc2cc(OC3CCOCC3)c3c(Nc4c(Cl)ccc5c4OCO5)ncnc3c2)CC1 [SARACATINIB] | > 2 | > 2 | > 2 | > 2 | > 2 | > 2 | > 2 | > 2 | > 2 | > 2 | > 2 | > 2 | > 2 | > 2 | > 2 | > 2 | > 2 | 1.78 | > 2 | > 2 | IC50 (A498): > 2 µM; IC50 (LC-2-ad): > 2 µM; IC50 (C2BBe1): 1.21 µM; IC50 (ES4): > 2 µM; IC50 (K562): 0.45 µM
CS(=O)(=O)CCNCc1ccc(-c2ccc3ncnc(Nc4ccc(OCc5cccc(F)c5)c(Cl)c4)c3c2)o1 [LAPATINIB] | > 2 | > 2 | > 2 | > 2 | > 2 | > 2 | > 2 | > 2 | > 2 | > 2 | > 2 | > 2 | > 2 | 0.723 | 1.55 | > 2 | > 2 | > 2 | > 2 | > 2 | IC50 (LC-2-ad): > 2 µM; IC50 (C2BBe1): > 2 µM; IC50 (ES4): > 2 µM; IC50 (K562): > 2 µM
CCc1nc(N)nc(N)c1-c1ccc(Cl)cc1 [PYRIMETHAMINE] | > 20 | > 20 | > 20 | > 20 | 3.6 | 1.37 | > 20 | 4.74 | > 20 | > 20 | 15.8 | 6.61 | > 20 | > 20 | > 20 | > 20 | > 20 | > 20 | > 20 | 9.11 | IC50 (A498): > 20 µM; IC50 (LC-2-ad): > 20 µM; IC50 (C2BBe1): > 20 µM; IC50 (ES4): 3.12 µM; IC50 (K562): > 20 µM
CNC(=O)c1cc(Oc2ccc(NC(=O)Nc3ccc(Cl)c(C(F)(F)F)c3)cc2)ccn1 [SORAFENIB] | > 4 | > 4 | > 4 | > 4 | > 4 | > 4 | > 4 | > 4 | > 4 | 1.64 | > 4 | > 4 | > 4 | 1.59 | > 4 | > 4 | > 4 | 2.92 | > 4 | > 4 | IC50 (A498): > 4 µM; IC50 (LC-2-ad): > 4 µM; IC50 (C2BBe1): > 4 µM; IC50 (ES4): > 4 µM; IC50 (K562): > 4 µM
O=C(/C=C/c1ccccc1)NC(NC(=S)Nc1cccc2cccnc12)C(Cl)(Cl)Cl (centres undefined) [SALUBRINAL] | > 16 | > 16 | > 16 | > 16 | > 16 | 9.71 | > 16 | 9.32 | > 16 | > 16 | 14.1 | > 16 | > 16 | > 16 | > 16 | > 16 | > 16 | > 16 | > 16 | > 16 | IC50 (A498): > 16 µM; IC50 (LC-2-ad): > 16 µM; IC50 (C2BBe1): > 16 µM; IC50 (ES4): > 16 µM; IC50 (K562): 11 µM
C=C1C(=O)O[C@@H]2C3O[C@]3(C)CC/C=C(\C)CC[C@@H]12 (some centres undefined) | > 5 | > 5 | > 5 | 1.72 | > 5 | > 5 | > 5 | > 5 | > 5 | > 5 | > 5 | > 5 | > 5 | > 5 | > 5 | > 5 | > 5 | > 5 | > 5 | > 5 | IC50 (A498): > 5 µM; IC50 (LC-2-ad): > 5 µM; IC50 (C2BBe1): > 5 µM; IC50 (ES4): > 5 µM; IC50 (K562): > 5 µM
CO[C@H]1C[C@@H]2CC[C@@H](C)[C@@](O)(O2)C(=O)C(=O)N2CCCC[C@H]2C(=O)O[C@H]([C@H](C)C[C@@H]2CC[C@@H](O)[C@H](OC)C2)CC(=O)[C@H](C)/C=C(\C)[C@@H](O)[C@@H](OC)C(=O)[C@H](C)C[C@H](C)/C=C/C=C/C=C/1C [SIROLIMUS] | > 0.1 | > 0.1 | > 0.1 | > 0.1 | > 0.1 | 0.00217 | > 0.1 | > 0.1 | > 0.1 | 0.0304 | 0.0131 | 0.0118 | > 0.1 | 0.0448 | 0.00277 | 0.0114 | > 0.1 | > 0.1 | 0.00269 | > 0.1 | IC50 (A498): > 0.1 µM; IC50 (LC-2-ad): 0.000423 µM; IC50 (C2BBe1): > 0.1 µM; IC50 (ES4): < 0.000391 µM; IC50 (K562): > 0.1 µM
